# According to US20250257064A1, “TRIFLUOROMETHYL-SUBSTITUTED SULFONAMIDE AS BCL-2-SELECTIVE INHIBITOR” (Chia Tai Tianqing Pharmaceutical Group Co., Ltd., priority 2018, published 2025):
# Legend:
# BCL-XL/BAK = molecular target: T1, BCL-XL/BAK (Homo sapiens, UniProt Q07817); experiment: Screening on inhibitory activity for BCL-XL/BAK binding (Cisbio HTRF kit)
# T1 construct: purchased Cisbio
# Protocol: 1.2 Screening on Inhibitory Activity for BCL-XL/BAK Binding
# 300 nM Tag1-BCL-XL protein stock solution and 10 μM Tag2-BAK protein stock solution were diluted to 2 nM and 80 nM respectively with dilution buffer in kit (model: BCL-XL/BAK (BH3) BINDING ASSAY KITS, from Cisbio). 5 μL of Tag1-BCL-XL protein diluent was added to each well, then different compounds dissolved with DMSO were added to the wells with a nanoliter pipettor, allowing the final compound concentrations to be 2000 nM to 0.488 nM (4-fold gradient for 7 concentrations in total). Blank control wells (without enzyme) and negative control wells (with enzyme, plus vehicle DMSO) were set, and 2 replicate wells were set. Finally, 5 μL of Tag2-BAK protein diluent was added to each well, and the mixture was mixed well by centrifugation and incubated at 25° C. for 15 min. 100× anti-Tag1-Eu^3+ and 100× anti-Tag2-XL665 were both diluted to 1× working concentration with the detection buffer in the kit. Anti-Tag1-Eu^3+ and anti-Tag2-XL665 were mixed well in a 1:1 ratio, and the mixture was added to wells at 5 µL/well, and incubated at 25° C. for 2 h or more. The plate was read using a PE Envision multi-functional microplate reader (excitation: […], emission: 665 nm) and IC50 (shown in table 1) was calculated by four-parameter fitting.
# RS4;11 cells = experiment: Inhibitory effect on proliferation of RS4;11 cells (CCK-8); assay type: cell-based, human; details: Homo sapiens, RS4-11, 72 h
# Protocol: Experimental Example 2: Inhibitory Effect of Compounds on Proliferation of RS4;11 Cells
# RS4;11 cells (from Nanjing Cobioer) in logarithmic growth phase and good cell condition were added to a centrifuge tube and centrifuged at 1500 rpm for 3 min in a low speed centrifuge. The supernatant was discarded, and 5 mL of complete medium (RPMI basic medium+10 wt % fetal bovine serum (FBS)) was added using a pipette for cell resuspension. The cells were counted using a cell counter, diluted with complete medium to a cell density of 2×10^5 cells/mL, and added with an equivalent amount of RPMI basic medium to adjust the serum concentration to 5% and the cell density to 1×10^5 cells/mL for plate seeding. The cells were seeded on a 96-well plate at 100 μL/well using a pipettor, and incubated in an incubator at 37° C., 5% CO2 with saturated humidity. After 24 h of incubation, compounds were loaded using a nanoliter pipettor, 2 duplicate wells were set for each concentration, and cells without compound were used as negative controls. […] Inhibition rate (%)=(mean value of negative control group—mean value of experimental group)/(mean value of negative control group—mean value of blank group)×100%. A dose-response curve was fitted by four-parameter analysis, with the logarithm of compound concentration serving as abscissa and inhibition rate serving as ordinate, so that IC50 was calculated (FIG. 2).
# BCL-2/BAK = molecular target: T2, BCL-2/BAK (Homo sapiens, UniProt P10415); experiment: Screening on inhibitory activity for BCL-2/BAK binding (Cisbio HTRF kit)
# T2 construct: purchased Cisbio
# T2 sequence (P10415 whole entry, species assumed): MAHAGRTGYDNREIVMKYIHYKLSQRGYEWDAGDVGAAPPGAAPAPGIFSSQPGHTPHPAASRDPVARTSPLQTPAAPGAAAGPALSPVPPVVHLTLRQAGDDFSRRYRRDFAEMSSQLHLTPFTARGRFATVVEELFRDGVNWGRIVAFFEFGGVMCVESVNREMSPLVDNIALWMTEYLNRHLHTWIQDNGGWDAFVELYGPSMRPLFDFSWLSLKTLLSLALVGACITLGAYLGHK
# Protocol: 1.1 Screening on Inhibitory Activity for BCL-2/BAK Binding
# 500 nM Tag1-BCL-2 protein stock solution and 20 μM Tag2-BAK protein stock solution were diluted to 5 nM and 120 nM respectively with dilution buffer in kit (model: BCL-2/BAK (BH3) BINDING ASSAY KITS, from Cisbio). 5 μL of Tag1-BCL-2 protein diluent was added to each well, then different compounds dissolved with DMSO were added to the wells with a nanoliter pipettor, allowing the final compound concentrations to be 200 nM to 0.0488 nM (4-fold gradient for 7 concentrations in total). Blank control wells (without enzyme) and negative control wells (with enzyme, plus vehicle DMSO) were set, and 2 replicate wells were set. Finally, 5 μL of Tag2-BAK protein diluent was added to each well, and the mixture was mixed well by centrifugation and incubated at 25° C. for 15 min. 100× anti-Tag1-Eu^3+ and 100× anti-Tag2-XL665 were both diluted to 1× working concentration with the detection buffer in the kit. Anti-Tag1-Eu^3+ and anti-Tag2-XL665 were mixed well in a 1:1 ratio, and the mixture was added to wells at 5 μL/well, and incubated at 25° C. for 2 h or more. The plate was read using a PE Envision multi-functional microplate reader (excitation: […], emission: 665 nm) and IC50 (shown in table 1) was calculated by four-parameter fitting.
# T1 sequence (Q07817 whole entry, species assumed): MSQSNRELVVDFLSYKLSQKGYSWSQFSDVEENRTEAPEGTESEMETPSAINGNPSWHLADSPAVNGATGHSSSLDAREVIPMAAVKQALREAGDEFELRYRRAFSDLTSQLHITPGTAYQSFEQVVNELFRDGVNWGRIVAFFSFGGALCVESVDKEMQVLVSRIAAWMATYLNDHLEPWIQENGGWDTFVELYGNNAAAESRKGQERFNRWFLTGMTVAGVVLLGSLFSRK
SMILES,IC50 (BCL-XL/BAK) [nM],IC50 (RS4;11 cells) [nM],IC50 (BCL-2/BAK) [nM]
"CC1(C)CCC(CN2CCN(c3ccc(C(=O)NS(=O)(=O)c4ccc(NCC5CCCOC5)c([N+](=O)[O-])c4)c(Oc4cnc5[nH]ccc5c4)c3)CC2)=C(c2ccc(C(F)(F)F)cc2Cl)C1 (stereo not drawn) [Compound 13-1, 4-(4-{[2-(2-chloro-4-trifluoromethylphenyl)-4,4-dimethylcyclohex-1-enyl]methyl}-piperazin-1-yl)-N-({3-nitro-4-[(tetrahydro-2H-pyran-3-ylmethyl)amino]phenyl}sulfonyl)-2-(1H-pyrrolo[2,3-b]pyridin-5-yloxy)-benzamide]",387,8.1,3.6
"CC1(C)CCC(CN2CCN(c3ccc(C(=O)NS(=O)(=O)c4ccc(NCC5CCCCO5)c([N+](=O)[O-])c4)c(Oc4cnc5[nH]ccc5c4)c3)CC2)=C(c2ccc(C(F)(F)F)cc2Cl)C1 (stereo not drawn) [Compound 14-1, 4-(4-{[2-(2-chloro-4-trifluoromethylphenyl)-4,4-dimethylcyclohex-1-enyl]methyl}-piperazin-1-yl)-N-({3-nitro-4-[(4-tetrahydro-2H-pyran-2-ylmethyl)amino]phenyl}sulfonyl)-2-(1H-pyrrolo[2,3-b]pyridin-5-yloxy)-benzamide]",338,8.6,5.1
CC1(C)CCC(CN2CCN(c3ccc(C(=O)NS(=O)(=O)c4ccc(NCC5CCCN(S(C)(=O)=O)C5)c([N+](=O)[O-])c4)c(Oc4cnc5[nH]ccc5c4)c3)CC2)=C(c2ccc(C(F)(F)F)cc2Cl)C1 (stereo not drawn) [Compound 15-1],729,7.2,3.83
"CC(=O)N1CCOC(CCNc2ccc(S(=O)(=O)NC(=O)c3ccc(N4CCN(CC5=C(c6ccc(C(F)(F)F)cc6Cl)CC(C)(C)CC5)CC4)cc3Oc3cnc4[nH]ccc4c3)cc2[N+](=O)[O-])C1 (stereo not drawn) [Compound 16-1, 4-(4-{[2-(2-chloro-4-trifluoromethylphenyl)-4,4-dimethylcyclohex-1-enyl]methyl}-piperazin-1-yl)-N-({3-nitro-4-[(2-(4-acetylmorpholin-2-yl)ethyl)amino]phenyl}sulfonyl)-2-(1H-pyrrolo[2,3-b]pyridin-5-yloxy)-benzamide]",653,7.8,3.09
CC(C)C(=O)N1CCC(CNc2ccc(S(=O)(=O)NC(=O)c3ccc(N4CCN(CC5=C(c6ccc(C(F)(F)F)cc6Cl)CC(C)(C)CC5)CC4)cc3Oc3cnc4[nH]ccc4c3)cc2[N+](=O)[O-])CC1 [Compound 23-1],302,10,5.1
"CC1(C)CCC(CN2CCN(c3ccc(C(=O)NS(=O)(=O)c4ccc(NC[C@H]5CCOC5)c([N+](=O)[O-])c4)c(Oc4cnc5[nH]ccc5c4)c3)CC2)=C(c2ccc(C(F)(F)F)cc2Cl)C1 [Compound 35-1, (R)-4-(4-{[2-(2-chloro-4-trifluoromethylphenyl)-4,4-dimethylcyclohex-1-enyl]methyl}-piperazin-1-yl)-N-({3-nitro-4-[((tetrahydrofuran-3-yl)methyl)amino]phenyl}sulfonyl)-2-(1H-pyrrolo[2,3-b]pyridin-5-yloxy)-benzamide]",232,9.6,1.61
"CC1(C)CCC(CN2CCN(c3ccc(C(=O)NS(=O)(=O)c4ccc(NC[C@H]5CCCO5)c([N+](=O)[O-])c4)c(Oc4cnc5[nH]ccc5c4)c3)CC2)=C(c2ccc(C(F)(F)F)cc2Cl)C1 [Compound 38-1, (R)-4-(4-{[2-(2-chloro-4-trifluoromethylphenyl)-4,4-dimethylcyclohex-1-enyl]methyl}-piperazin-1-yl)-N-({3-nitro-4-[((tetrahydrofuran-2-yl)methyl)amino]phenyl}sulfonyl)-2-(1H-pyrrolo[2,3-b]pyridin-5-yloxy)-benzamide]",187,6.6,2.81
"CC1(C)CCC(CN2CCN(c3ccc(C(=O)NS(=O)(=O)c4ccc(NC[C@H]5CCCOC5)c([N+](=O)[O-])c4)c(Oc4cnc5[nH]ccc5c4)c3)CC2)=C(c2ccc(C(F)(F)F)cc2Cl)C1 [Compound 42-1, (R)-4-(4-{[2-(2-chloro-4-trifluoromethylphenyl)-4,4-dimethylcyclohex-1-enyl]methyl}-piperazin-1-yl)-N-({3-nitro-4-[((tetrahydropyran-3-yl)methyl)amino]phenyl}sulfonyl)-2-(1H-pyrrolo[2,3-b]pyridin-5-yloxy)-benzamide]",220,6.8,2.81
"CC1(C)CCC(CN2CCN(c3ccc(C(=O)NS(=O)(=O)c4ccc(NCC5CN(C=O)CCO5)c([N+](=O)[O-])c4)c(Oc4cnc5[nH]ccc5c4)c3)CC2)=C(c2ccc(C(F)(F)F)cc2Cl)C1 (stereo not drawn) [Compound 48-1, 4-(4-{[2-(2-chloro-4-trifluoromethylphenyl)-4,4-dimethylcyclohex-1-enyl]methyl}-piperazin-1-yl)-N-({3-nitro-4-[((N-formylmorpholin-2-yl)methyl)amino]phenyl}sulfonyl)-2-(1H-pyrrolo[2,3-b]pyridin-5-yloxy)-benzamide]",118,1.4,1.4
"CC1(C)CCC(CN2CCN(c3ccc(C(=O)NS(=O)(=O)c4ccc(NCC5CN(C(=O)C(C)(C)C)CCO5)c([N+](=O)[O-])c4)c(Oc4cnc5[nH]ccc5c4)c3)CC2)=C(c2ccc(C(F)(F)F)cc2Cl)C1 (stereo not drawn) [Compound 50-1, 4-(4-{[2-(2-chloro-4-trifluoromethylphenyl)-4,4-dimethylcyclohex-1-enyl]methyl}-piperazin-1-yl)-N-({3-nitro-4-[((4-pivaloylmorpholin-2-yl)methyl)amino]phenyl}sulfonyl)-2-(1H-pyrrolo[2,3-b]pyridin-5-yloxy)-benzamide]",211,4.3,2.59
"CC1(C)CCC(CN2CCN(c3ccc(C(=O)NS(=O)(=O)c4ccc(NCC5CN(C(=O)C(F)(F)F)CCO5)c([N+](=O)[O-])c4)c(Oc4cnc5[nH]ccc5c4)c3)CC2)=C(c2ccc(C(F)(F)F)cc2Cl)C1 (stereo not drawn) [Compound 52-1, 4-(4-{[2-(2-chloro-4-trifluoromethylphenyl)-4,4-dimethylcyclohex-1-enyl]methyl}-piperazin-1-yl)-N-({3-nitro-4-[((4-(2,2,2-trifluoroacetyl)morpholin-2-yl)methyl)amino]phenyl}sulfonyl)-2-(1H-pyrrolo[2,3-b]pyridin-5-yloxy)-benzamide]",175,0.9,3.9
"COCC(=O)N1CCCC(CNc2ccc(S(=O)(=O)NC(=O)c3ccc(N4CCN(CC5=C(c6ccc(C(F)(F)F)cc6Cl)CC(C)(C)CC5)CC4)cc3Oc3cnc4[nH]ccc4c3)cc2[N+](=O)[O-])C1 (stereo not drawn) [Compound 58-1, 4-(4-{[2-(2-chloro-4-trifluoromethylphenyl)-4,4-dimethylcyclohex-1-enyl]methyl}-piperazin-1-yl)-N-({3-nitro-4-[((1-(2-methoxyacetyl)piperidin-3-yl)methyl)amino]phenyl}sulfonyl)-2-(1H-pyrrolo[2,3-b]pyridin-5-yloxy)-benzamide]",145,5.3,2.35
